Experimental data published in publication PMC5983811, “Protein Tyrosine Phosphatase 1B Inhibition and Glucose Uptake Potentials of Mulberrofuran G, Albanol B, and Kuwanon G from Root Bark of Morus alba L. in Insulin-Resistant HepG2 Cells: An In Vitro and In Silico Study” (International Journal of Molecular Sciences, 2018).

Tests used:
[1] = biological target: T1, PTP1B (human recombinant) (Homo sapiens, UniProt P18031); assay: PTP1B inhibitory assay (pNPP substrate) and kinetic study; format: biochemical; conditions: for Ki: Dixon plot, read-out: Protein Tyrosine Phosphatase 1B Ki; for Protein Tyrosine Phosphatase 1B Inhibition Type: Lineweaver-Burk plot; for IC50: pNPP substrate, mean ± SEM of triplicate experiments, read-out: Protein Tyrosine Phosphatase 1B IC50
T1 construct: purchased Biomol International LP (Plymouth Meeting, PA, USA)
T1 sequence (P18031 1-435): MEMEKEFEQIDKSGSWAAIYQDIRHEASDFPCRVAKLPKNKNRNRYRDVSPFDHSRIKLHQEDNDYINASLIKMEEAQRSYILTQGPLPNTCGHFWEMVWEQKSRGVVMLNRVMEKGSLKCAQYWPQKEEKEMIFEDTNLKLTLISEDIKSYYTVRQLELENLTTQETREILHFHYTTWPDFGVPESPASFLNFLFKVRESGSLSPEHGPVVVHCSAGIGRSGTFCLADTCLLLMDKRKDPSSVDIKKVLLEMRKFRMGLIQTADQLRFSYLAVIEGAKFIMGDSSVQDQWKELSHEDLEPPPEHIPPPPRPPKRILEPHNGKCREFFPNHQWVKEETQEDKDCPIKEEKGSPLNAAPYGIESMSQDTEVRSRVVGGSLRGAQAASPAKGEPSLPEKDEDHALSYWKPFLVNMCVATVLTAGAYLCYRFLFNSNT
Procedure: PTP1B inhibitory activity was evaluated using pNPP [44]. Recombinant PTP1B enzyme (0.5 units diluted in PTP1B reaction buffer) was added to a plate with or without sample. The plate was pre-incubated at 37 °C for 10 min, and then substrate (2 mM pNPP) was added. Following incubation at 37 °C for 15 min, the enzymatic reaction was terminated by addition of 10 M NaOH. The absorbance was measured at 405 nm using a microplate spectrophotometer (Molecular Devices, Sunnyvale, CA, USA).
(§1) Lineweaver–Burk plots for inhibition of PTP1B were obtained in the presence of various concentrations of the test compounds (0, 0.18, 0.44 and 1.78 μM for 1; 0, 0.27, 0.54, and 1.07 μM for 2; 0, 0.87, 1.44, and 2.89 μM for 3). Similarly, for the inhibition of α-glucosidase, text concentrations used were 0, 0.71, 1.07, and 1.78 μM for 1; 0, 0.36, 0.9, and 1.79 μM for 2 and 0, 0.72, 2.88, and 5.77 μM for 3. The enzymatic procedure consisted of the same aforementioned assay method. The inhibition constants (Ki) were determined via interpretation of the Dixon plots, where the value of the x-axis implies −Ki.

[2] = Cytotoxicity in HepG2 cells (MTT assay); format: cell-based; conditions: human, read-out: viable cell %
Procedure: In order to determine safe concentrations for cell experiments, the cytotoxicity of our test compounds in HepG2 cells was evaluated using an 3-(4,5-dimethylthiazol-2-yl)-2,5-diphenyltetrazolium bromide (MTT) assay. […] However, at 10 µM, the level of toxicity was high for 1 (viable cell %; 36), followed by 2 (viable cell %; 73) and 3 (viable cell %; 85). Therefore, 1.25, 2.5, and 5 µM concentrations were used in further cell experiments.
(§2) HepG2 (human hepatocarcinoma) cells, purchased from the American Type Culture Collection (HB-8065; Manassas, VA, USA), were maintained in 10% FBS MEM at 37 °C in a humidified atmosphere with 5% CO2. Medium was changed every 48 h. Cytotoxicity was evaluated using the MTT assay. Following the method previously described, insulin-resistant HepG2 cell model was established. All the other experiment conditions and procedures were similar to those reported in our previous paper.

[3] = system: PTP1B expression; assay: PTP1B expression level in insulin-resistant HepG2 cells (Western blot); format: cell-based, human
Procedure: Insulin-resistant HepG2 cells were exposed to different concentrations of 1–3 or rosiglitazone (10 μM) in 24-well plates. After 24 h of incubation with samples, the media in the wells was replaced with 100 nM insulin diluted in SFMEM and incubated at 37 °C for 30 min. Cells were then washed twice with ice-cold PBS, collected, and lysed with sample buffer (50 mM HEPES, pH 7.5, 150 mM NaCl, 2.5 mM EDTA, 0.5% NP-40, 1 mM PMSF, 1 mM DTT, 0.2% aprotinin, 0.5% leupeptin, 20 mM NaF, and 1 mM Na3VO4). Protein was quantified by the modified Bradford protein assay kit using BSA as a standard. Total protein (50 μg) was electrophoresed on sodium dodecyl sulfate-polyacrylamide gels (Bio-Rad, Hercules, CA, USA) and then transferred to polyvinylidene difluoride (PVDF) membranes (Immobilon-P; Millipore, Burlington, MA, USA) using the Pierce G2 Fast Blotter (Thermo Fisher Scientific Inc., Fair Lawn, NJ, USA) at 100 V for 60 min in a standard semi-dry system. Membranes were blocked in blocking buffer (5% skim milk powder in TBS-Tween buffer containing 10 mM Tris, 100 mM NaCl, and 0.1% Tween-20, pH 7.4) and incubated overnight with primary antibodies at 4 °C on a shaker, followed by incubation with appropriate secondary antibodies for 2 h at room temperature. The membranes were washed three times with TBST (3 × 10 min each) and the protein bands were visualized with the Supersignal West Pico Chemiluminescence Substrate (Pierce, Rockford, IL, USA) on X-ray films (Kodak, Rochester, NY, USA) and quantitated using CS analyzer software (Atto Corp., Tokyo, Japan).

[4] = biological target: α-glucosidase; assay: α-Glucosidase inhibitory assay (pNPG substrate) and kinetic study; format: biochemical; conditions: for Ki: Dixon plot; for α-Glucosidase Inhibition Type: Lineweaver-Burk plot; for IC50: pNPG substrate, mean ± SEM of triplicate experiments
Procedure: The enzyme inhibition study was carried out spectrophotometrically using the procedure previously reported. The α-glucosidase activity was determined by measuring release of […] at 405 nm using a microplate spectrophotometer (Molecular Devices).
as §1

[5] = system: insulin-resistant HepG2 cells; assay: Glucose uptake assay (2-NBDG) in insulin-resistant HepG2 cells; format: cell-based, human
Procedure: as §2
The glucose uptake rate in insulin-resistant HepG2 cells was assessed using the fluorescent D-glucose analog 2-NBDG. Once the induction of insulin resistance was accomplished, cell solutions in the wells were substituted with different concentrations of 1–3 or a positive control, rosiglitazone (10 µM), prepared in serum-free MEM (SFMEM) in respective groups. After 24 h incubation with samples, the media in the wells was replaced with 100 nM insulin diluted in SFMEM and incubated for 30 min. Cells were then incubated with 40 μM 2-NBDG for 30 min and washed with ice-cold PBS. The fluorescence intensity of 2-NBDG was measured on a fluorescence microplate reader (FL ×800, Bio-Tek Instruments, Inc., Winooski, VT, USA) at 485 nm excitation and 528 nm emission wavelengths. Six replicate wells were established, and each experiment was repeated three times.

Row | Compound | Ki [1] | Protein Tyrosine Phosphatase 1B Inhibition Type [1] | IC50 [1] | viability at 10 µM [2] | PTP1B expression ([3]; concentration dependent) | Ki [4] | α-Glucosidase Inhibition Type [4] | IC50 [4] | relative % glucose uptake ([5]; 10 µM) | PTP1B expression ([3]; 10 μM) | relative glucose uptake percentage ([5]; 5 µM) | PTP1B expression ([3]; 2.5 and 5 μM)
1 | CC(C)=CCc1c(-c2ccc(O)cc2O)oc2c([C@H]3C=C(C)C[C@@H](c4ccc(O)cc4O)[C@@H]3C(=O)c3ccc(O)cc3O)c(O)cc(O)c2c1=O [Compound 3, kuwanon G] | 1980 nM | Mixed type | 2260 ± 30 nM | 85% | downregulated the expression towards normal | 2510 nM | Mixed type | 2350 ± 30 nM |  |  |  | 
2 | Cc1cc2c3c(c1)-c1c(O)cc(-c4cc5ccc(O)cc5o4)cc1O[C@@]3(c1ccc(O)cc1O)Oc1cc(O)ccc1-2 [Compounds 2] | 1020 nM |  | 800 ± 20 nM | 73% |  |  |  |  |  |  |  | 
3 | CN(CCOc1ccc(CC2SC(=O)NC2=O)cc1)c1ccccn1 (stereo not shown) [rosiglitazone, reference compound] |  |  |  |  |  |  |  |  | 123% | declined |  | 
4 | CC1=C[C@H]2c3c(O)cc(-c4cc5ccc(O)cc5o4)cc3O[C@@]3(c4ccc(O)cc4O)Oc4cc(O)ccc4[C@H](C1)[C@@H]23 [Compound 1, mulberrofuran G] | 700 nM | Mixed type | 570 ± 40 nM | 36% |  | 1200 nM | Mixed type | 1670 ± 20 nM |  |  | 140% | diminished the PTP1B expression almost completely
